Assay results reported in PubChem BioAssay AID1850 (Southern Research Specialized Biocontainment Screening …, 2009).

These molecules were tested on Salmonella Typhi PhoP-promoter GFP reporter, fluorescence, 4 h (assay: PhoP regulon inhibitors, Salmonella typhi PhoP promoter GFP reporter, confirmatory (AID 1850)).
For Cc1cc([N+](=O)[O-])cc(/C=N/n2c(C)nc3ccccc3c2=O)c1O, the IC50 was 77.2 µM. Cc1ccccc1C(=O)Nc1cccc(C(=O)N/N=C/c2cc(Cl)cc([N+](=O)[O-])c2O)c1 gave an IC50 of 47.6 µM. With CC1CCc2c(N3CCC(O)CC3)c(F)cc3c(=O)c(C(=O)O)cn1c23 (stereo not given) the IC50 was 3.02 µM. In the case of CCCCCCCCCCOC(=O)Cn1c(COc2ccccc2C)[n+](C)c2ccccc21, the IC50 is reported as 13.2 µM. For CNCCCC1Sc2ccccc2Oc2ccccc21 (stereo not given), the IC50 was 98.5 µM. Molecule O=Nc1ccc(O)c2ncccc12 has an IC50 of 17.8 µM. In the case of COc1ccc(C(=O)N/N=C/c2sc3ccccc3c2O)cc1, the IC50 is reported as 73.3 µM. For Cc1cc(NC(=O)c2ccccc2)sc1C, the IC50 was 62.3 µM. Work on Cc1cc(C)n2nc(S(=O)(=O)Nc3c(Cl)cccc3Cl)nc2n1 yielded an IC50 of 63.5 µM. Molecule O=C(/C=C/c1ccccc1)NC(=S)NNC(=O)c1cnccn1 has an IC50 of 29.7 µM. With CN(C)CCCNc1c2ccccc2nc2ccccc12 the IC50 was 34.8 µM. With O=c1c2ccccc2nc(N/N=C/c2c(O)ccc3ccccc23)n1O the IC50 was 24.9 µM. In the case of Cc1ccc(C)c(N/C(N)=N/c2nc(C)cc(C)n2)c1, the IC50 is reported as 141 µM. With c1ccc2c(c1)CCc1ccccc1C2=C1CCNCC1 the IC50 was 74.9 µM. With CCCCCSc1cc(OC)c(CCNC)cc1OC the IC50 was 89 µM. In the case of CCCCCc1ccc(OCCC[n+]2ccccc2)c(CCCCC)c1, the IC50 is reported as 39.5 µM. CN(C)CCNC(=O)/C(=C/c1ccc(-c2ccc(Cl)cc2)o1)NC(=O)c1ccccc1 showed an IC50 of 78 µM. CCCCn1c(=N)n(CC(=O)c2ccc(Br)s2)c2ccccc21 gave an IC50 of 51.4 µM. Work on C#CCOCCOCCOCCNc1nc(N2CCN(C(=O)CCCCCCCCCCNC(=O)[C@H](CO)n3cc(CCCCCN)nn3)CC2)nc(N2CCN(C(=O)CCCCCCCCCCNC(=O)[C@H](CCCN=C(N)N)n3cc(C[C@@H](C)CC)nn3)CC2)n1 yielded an IC50 of 24.3 µM. Oc1ccccc1Nc1nc(NCc2ccco2)c2ccccc2n1 showed an IC50 of 34.8 µM. Molecule CCCCCCCCC1=NCCc2c1[nH]c1ccccc21 has an IC50 of 63.1 µM. Work on C=C1c2cccc(O)c2C(O)=C2C(=O)[C@]3(O)C(O)=C(C(N)=O)C(=O)[C@@H](N(C)C)[C@@H]3[C@@H](O)[C@H]12 yielded an IC50 of 0.56 µM. In the case of O=[N+]([O-])c1cc(CN2CCN(c3cccc(C(F)(F)F)c3)CC2)c2cccnc2c1O, the IC50 is reported as 20.8 µM. O=C(CSc1nc2ccccc2s1)N/N=C/c1cc([N+](=O)[O-])ccc1O was tested, and the IC50 was 72.5 µM. Work on CC(NCc1ccccc1O)C12CC3CC(CC(C3)C1)C2 (stereo not given) yielded an IC50 of 34.2 µM. With Fc1ccc([C@@H]2CCNC[C@H]2COc2ccc3c(c2)OCO3)cc1 the IC50 was 42.9 µM. With c1ccc2cc3c(NCCN4CCOCC4)ccnc3cc2c1 the IC50 was 77.1 µM. For O=C(Nc1nc(-c2ccccn2)cs1)c1ccc(Cl)s1, the IC50 was 33.2 µM. For CN1CCN(C2Cc3ccc(Cl)cc3Sc3ccc(F)cc32)CC1 (stereo not given), the IC50 was 37.8 µM. NC[C@@H]1O[C@H](C23CC4CC(CC(C4)C2)C3)Cc2c1ccc(O)c2O gave an IC50 of 50.1 µM. O=C1C=C(Nc2ccccc2O)c2ccccc2C1=O showed an IC50 of 54.5 µM. In the case of C/C(=N\NC(=O)c1cccc(Br)c1)c1ccccn1, the IC50 is reported as 36.6 µM. In the case of OC(CNCCc1ccccc1)COc1ccc(OCC(O)CNCCc2ccccc2)cc1 (stereo not given), the IC50 is reported as 35.8 µM. CS(=O)(=O)c1ccc([C@@H](O)[C@@H](CO)NC(=O)C(Cl)Cl)cc1 showed an IC50 of 33.5 µM. With CC(C)(C)/C(O)=C/c1nc2cc(Cl)ccc2oc1=O the IC50 was 18.2 µM. CCS(=O)(=O)c1ccc2oc(=O)c(/C=C(\O)c3ccc(Cl)cc3)nc2c1 showed an IC50 of 76.1 µM. Molecule CC(Nc1nc(N2CCCCC2)nc2ccccc12)c1ccccc1 (stereo not given) has an IC50 of 39.2 µM. In the case of CCCCCC[N+](C)(C)CC/C=C1/c2ccccc2Sc2ccc(Cl)cc21, the IC50 is reported as 38.1 µM. Molecule O=S1(=O)Nc2c(ccc3cccnc23)-c2ccccc21 has an IC50 of 2.17 µM. Cc1ccc(OCC(=O)N/N=C\c2c(C)[nH]n(-c3ccccc3)c2=O)c([N+](=O)[O-])c1 showed an IC50 of 66.6 µM. Molecule Cc1ccc(C(=O)NCCN2C3=NC[C@@H](Cc4ccccc4)N3C[C@H]2Cc2ccc(O)cc2)cc1Br has an IC50 of 47.2 µM. CCCNC(=O)c1cn(CC)c2cc(N3CCN(C)CC3)c(F)cc2c1=O showed an IC50 of 13.4 µM. CO[C@@]1(NC(=O)C2SC(=C(C(N)=O)C(=O)O)S2)C(=O)N2C(C(=O)O)=C(CSc3nnnn3C)CS[C@@H]21 (stereo not given in full) showed an IC50 of 9.42 µM. For Oc1cccc(Nc2nc(NCC3CCCO3)c3ccccc3n2)c1 (stereo not given), the IC50 was 19.2 µM. Work on COc1ccc(/C=N/Nc2cc(C)nc3c(C)cccc23)cc1 yielded an IC50 of 19.3 µM. Clc1c(OCCCn2ccnc2)ccc2ccccc12 showed an IC50 of 39.7 µM. CC1CCC(C(C)C)C(OC(=O)Cn2c(-c3ccc(Cl)cc3)[n+](C)c3ccccc32)C1 (stereo not given) gave an IC50 of 50.4 µM. With O=C(NNc1nc2ccc(F)cc2s1)c1cccc(F)c1 the IC50 was 76.8 µM. CCOC(=O)C1=C(c2ccccc2)NC(N)=NC1c1ccc(OCc2ccc(C(=O)OC)cc2)cc1 (stereo not given) was tested, and the IC50 was 34.4 µM. CC(C)(c1ccccc1)c1ccc(OCCCN2CCNCC2)cc1 gave an IC50 of 56.2 µM. With Clc1cc(Br)ccc1OCCCNCc1ccccc1 the IC50 was 36.5 µM. For O=C(O)c1cc2c(cn1)[nH]c1ccccc12, the IC50 was 77.7 µM. In the case of O=c1cc(-c2ccc(O)cc2)oc2c(O)c(O)c(O)c(O)c12, the IC50 is reported as 35.6 µM. For COc1ccc(/C=N/Nc2cc(C)nc3ccc(Br)cc23)cc1, the IC50 was 19.1 µM. For O=C(Oc1ccccc1)c1cc2ccccc2o1, the IC50 was 38.1 µM. For O=C1C2=C(Nc3ccccc3SC2c2ccco2)c2ccccc21 (stereo not given), the IC50 was 12.3 µM. Molecule c1ccc2c(c1)C(=NC1CCCCC1)NC2=NC1CCCCC1 has an IC50 of 65.6 µM. In the case of CNCCCCOc1ccc(C(C)(C)C)cc1Cl, the IC50 is reported as 77 µM. Work on CN1CCN(c2nc(Nc3ccc(F)cc3)nc(Nc3ccc(F)cc3)n2)CC1 yielded an IC50 of 80.6 µM. With O=C(Nc1ccncc1)Nc1ccc(Cl)cc1 the IC50 was 32.8 µM. NC(=O)SCC(=O)Nc1ccc(Cl)cc1 showed an IC50 of 13.6 µM. For C/C(O)=C\c1nc2ccccc2oc1=O, the IC50 was 44.4 µM. O=C(CCc1ccccc1)NNC(=S)NC(=O)c1ccccc1 showed an IC50 of 118 µM. With CC(=O)Nc1ccc(S(=O)(=O)NNc2cccc(C)c2)cc1 the IC50 was 39.2 µM. CCn1nc(C(=O)O)c(=O)c2cc3c(cc21)OCO3 showed an IC50 of 34.6 µM. Work on Cc1c(Cl)cccc1Nc1nc(NCCO)c2ccccc2n1 yielded an IC50 of 10.8 µM. CCn1cc(C(=O)O)c(=O)c2cc(F)c(N3CCN(C(=S)NC(=O)c4ccccc4F)CC3)cc21 was tested, and the IC50 was 55.1 µM. With CC[C@H]1OC(=O)[C@H](C)[C@@H](O[C@H]2C[C@@](C)(OC)[C@@H](O)[C@H](C)O2)[C@H](C)[C@@H](O[C@@H]2O[C@H](C)C[C@H](N(C)C)[C@H]2O)[C@](C)(O)C[C@@H](C)[C@@H]2N[C@@H](COCCOC)O[C@H]([C@H]2C)[C@]1(C)O the IC50 was 8.02 µM. Oc1ccc(CN2CCN(c3ccccc3)CC2)c2cccnc12 showed an IC50 of 147 µM. C=CCNc1ncnc2c1[nH]c1ccc(Cl)cc12 was tested, and the IC50 was 18.3 µM. Work on Oc1ccc(CN2CCN(Cc3ccccc3)CC2)c2cccnc12 yielded an IC50 of 33.5 µM. Molecule COc1c(N2CCN(C(=S)NC3CC4CCC3C4)C(C)C2)c(F)cc2c(=O)c(C(=O)O)cn(C3CC3)c12 (stereo not given) has an IC50 of 6.62 µM. Molecule CCn1cc(C(=O)O)c(=O)c2cc(F)c(N3CCN(C)CC3)cc21 has an IC50 of 0.43 µM. CCCCCCCCCCCCCCCC[N+](C)(C)CC showed an IC50 of 18.6 µM. O=C1NCCN1c1ncc([N+](=O)[O-])s1 was tested, and the IC50 was 40.8 µM. CN(C)c1ccc(/C=C/c2ccc3ccccc3[n+]2C)cc1 showed an IC50 of 18.7 µM. Cc1c(CN(C)C)c2c(n1Cc1ccccc1)C(=O)c1ccc(Br)cc1-2 gave an IC50 of 76.5 µM. For Oc1c(CN2CCN(c3ccccn3)CC2)cc(Cl)c2cccnc12, the IC50 was 29.6 µM. Cc1c2ccncc2c(C)c2c1[nH]c1ccccc12 showed an IC50 of 18.8 µM. CCc1ccc(-c2nn(-c3ccccc3)cc2CSC(=N)N)cc1 showed an IC50 of 32.7 µM. Work on CCc1ccc(NC(=O)C[n+]2cc(-c3ccc(C)cc3)n3c2CCC3)cc1 yielded an IC50 of 39.8 µM. For CCn1cc(C(=O)O)c(=O)c2cc(F)c(N3CCN(C(=S)NC(=O)c4cccc(F)c4)CC3)cc21, the IC50 was 18.6 µM. For CCCCCCCCCCCCOC(=O)C[N+](C)(C)C, the IC50 was 29.9 µM. In the case of Cn1c(-c2ccc3c(c2)OCO3)cnc1NCc1ccc(Cl)cc1, the IC50 is reported as 81.8 µM. With O=C(CSc1ccccn1)N/N=C/c1cc([N+](=O)[O-])ccc1O the IC50 was 76.1 µM. Cc1ccccc1C(=O)NNC(=S)NC(=O)COc1ccccc1 showed an IC50 of 132 µM. CCCNC1=C(C)C(=O)C2=C(C1=O)C(COC(N)=O)[C@]1(OC)C3NC3CN21 (stereo not given in full) gave an IC50 of 15.9 µM. Molecule CCCCCCCCCn1c2c(c(=N)c3c1CCC3)CCC2 has an IC50 of 17.4 µM. Molecule CCCCCCCCCCCCCCCC[N+](C)(C)CCN(Cc1ccc(OC)cc1)c1ncccn1 has an IC50 of 19.3 µM. With O=C(CSc1ccccn1)N/N=C/c1c[nH]c2ccccc12 the IC50 was 117 µM. O=c1c2ccccc2[nH]c2ccccc12 gave an IC50 of 36.2 µM. O=C(CC(=O)c1c(F)cccc1Cl)c1ccccc1O was tested, and the IC50 was 50.8 µM. Work on O=C(Nc1nnc(-c2cccs2)o1)c1cccc(C(F)(F)F)c1 yielded an IC50 of 22.9 µM. COc1ccc(CCN2CCC(Nc3nc4ccccc4n3Cc3ccc(F)cc3)CC2)cc1 showed an IC50 of 37.7 µM. Molecule Oc1ccccc1C(Nc1nccs1)c1ccc2cccnc2c1O (stereo not given) has an IC50 of 20.7 µM. CCN1CCCC1CNC(=O)C1CCN(Cc2nc(-c3cccc(Br)c3)oc2C)CC1 (stereo not given) gave an IC50 of 127 µM. In the case of OCCN1CCN(CCCN2c3ccccc3Sc3ccc(C(F)(F)F)cc32)CC1, the IC50 is reported as 105 µM. Work on CCOC(=O)N1CCN(CCC(=O)c2ccc(Cl)cc2)CC1 yielded an IC50 of 77.2 µM. For O=C(NNC(=S)NC(=O)c1ccccc1)c1ccc(O)cc1, the IC50 was 60.9 µM. Molecule Clc1ccc(CNCc2cccs2)cc1Cl has an IC50 of 32 µM. Work on Cc1cc([N+](=O)[O-])nn1CC(=O)N/N=C/c1ccccc1O yielded an IC50 of 47.1 µM. For Clc1ccc(OCCCN2CCCC2)cc1Cl, the IC50 was 93.3 µM. Molecule CCOC(=O)N/N=C\c1ccc([N+](=O)[O-])o1 has an IC50 of 33.1 µM. CCCc1nnc(NC(=O)c2cn(CC)c3cc(N4CCN(C)CC4)c(F)cc3c2=O)s1 showed an IC50 of 66.8 µM. Molecule O=C(Nc1cccc(N=Cc2cc(Cl)cc(Br)c2O)c1)c1ccco1 has an IC50 of 96.9 µM. Clc1ccc(OCCCNCc2ccccc2)c2ccccc12 was tested, and the IC50 was 19.2 µM. For O=C1C=CC(=O)N1CCCCCCN1C(=O)C=CC1=O, the IC50 was 95.1 µM. C[C@H]1c2cccc(O)c2C(O)=C2C(=O)[C@]3(O)C(O)=C(C(N)=O)C(=O)[C@@H](N(C)C)[C@@H]3[C@@H](O)[C@@H]21 was tested, and the IC50 was 3.98 µM. O=C(CC(=O)c1ccccc1O)c1cccc(F)c1 showed an IC50 of 20.8 µM. For O=C(CCN1CCN(C(=O)c2ccccc2)CC1)c1ccc(Br)cc1, the IC50 was 117 µM. CCCCOc1ccc(C(=O)NNC(=S)NC(=O)CC)cc1 gave an IC50 of 37.1 µM. Oc1c(Cl)cc(CN2CCCCC2)c2cccnc12 gave an IC50 of 20 µM. With CN1C(=O)NC(c2cccc(O)c2)C(C(=O)c2cccs2)C1(O)C(F)(F)F (stereo not given) the IC50 was 40.3 µM. Oc1c(Br)cc(Br)cc1C=NCc1ccccc1 gave an IC50 of 86.6 µM. CCOC(=O)N1CCN(C(=O)c2cn(CC)c3cc(N4CCN(C)CC4)c(F)cc3c2=O)CC1 showed an IC50 of 3.42 µM.
